How the values were obtained:
S. aureus ATCC 29213 = experiment: NCCLS broth microdilution MIC; format: cell-based, Staphylococcus aureus; details: A = S. aureus ATCC 29213
E. faecalis ATCC 29212 = experiment: NCCLS broth microdilution MIC; format: cell-based, Enterococcus faecalis; details: B = E. faecalis ATCC 29212
B. cereus ATCC 11778 = experiment: NCCLS broth microdilution MIC; format: cell-based, Bacillus cereus; details: C = B. cereus ATCC 11778
E. coli ATCC 25922 = experiment: NCCLS broth microdilution MIC; format: cell-based; details: D = E. coli ATCC 25922
C. albicans ATCC 38247 = experiment: NCCLS broth microdilution MIC (antifungal); format: cell-based; details: E = C. albicans ATCC 38247
S. pneumoniae ATCC 49619 = experiment: NCCLS broth microdilution MIC; format: cell-based, Streptococcus pneumoniae; details: F = S. pneumoniae ATCC 49619
5′-AAAAAGACAAAAA-3′ = format: binding; details: DNA sequence 5′-AAAAAGACAAAAA-3′; pH 7.0, 22° C.
Procedure: (§1) A number of compounds according to this invention were screened for their ability to bind to three DNA sites, using DNase I footprinting. Generally, the procedure described in Dervan, WO 98/50582 (1998), was followed.
(§2) A plasmid was prepared by hybridizing two sets of 5′-phosphorylated complementary oligonucleotides, one set being
(§3) The target sites and their complements are identified in bold underline.
(§4) The resulting duplexes were ligated to the large pUC19 AvaI/SalI restriction fragment. The 3′-P32 end-labeled EcoRI/PvuII fragment was prepared by digesting the plasmid with EcoRI and PvuII with simultaneous fill-in using Sequenase v. 2.0, [alpha-P32]-deoxyadenosine-5′-triphosphate, and [alpha-P32]-thymidine-5′-triphosphate, and isolating the cloned fragment by nondenaturing gel electrophoresis. Standard methods were used for all DNA manipulations, including A and G sequencing. See, e.g., Maxam et al., Methods Enzymol., 1980, 65, 499-560; Iverson et al., Methods Enzymol., 1987, 15, 7823-7830; and Sambrook et al., 1989, Molecular Cloning, 2nd ed., Cold Spring Harbor Laboratory Press: Cold Spring Harbor, N.Y.
(§5) Quantitative DNase I footprint titration experiments were carried out as described previously (Dervan, WO 98/50582, 1998, “Dervan '582”) with the following changes. All reactions were carried out in a total volume of 400 μL, with polyamide stock solution or water added to 15,000 cpm radiolabeled restriction fragment affording final solution conditions of 10 mM Tris.HCl, 10 mM KCl, 10 mM MgCl2, 5 mM CaCl2, pH 7.0 and 0.01 nM, 0.1 nM, 1.0 nM, 10.0 nM polyamide or no polyamide for reference lanes. The polyamides were allowed to equilibrate at 22° C. for 16 hr. Footprinting reactions were initiated with addition of 10 μL of a DNase I stock solution (at the appropriate concentration to give ˜50% intact DNA) containing 1 mM DTT and allowed to proceed for 7 min at 22° C. The reactions were stopped, ethanol precipitated, resuspended in loading buffer, heat denatured, and placed on ice as described in Dervan '582. The reaction products were separated on a precast 8% polyacrylamide denaturing sequencing Castaway gel with 32 preformed wells from Stratagene in 1× TBE at 2000 V. Gels were dried according to the manufacturer's instructions and exposed to a storage phosphor screen (Molecular Dynamics). Quantitation and data analysis were carried out as described in Dervan '582.

5′-AAAAAGCAAAAA-3′ = format: binding; details: DNA sequence 5′-AAAAAGCAAAAA-3′; pH 7.0, 22° C.
Procedure: as §1, §2, §3, §4, §5

5′-AAAAAGTACAAAAA-3′ = format: binding; details: DNA sequence 5′-AAAAAGTACAAAAA-3′; pH 7.0, 22° C.
Procedure: as §1, §2, §3, §4, §5

CCN(CC)CCNC(=O)CCNC(=O)c1cc(NC(=O)c2cc(NC(=O)CCNC(=O)c3cc(NC(=O)c4cc(NC(=O)c5ccc(Br)s5)cn4C)cn3C)cn2C)cn1C [Id-22]
Minimum Inhibitory Concentration (MIC) (S. aureus ATCC 29213): >32 µg/mL
Minimum Inhibitory Concentration (MIC) (E. faecalis ATCC 29212): +++ (+++ = MIC ≦4)
Minimum Inhibitory Concentration (MIC) (B. cereus ATCC 11778): +++ (+++ = MIC ≦4)
Minimum Inhibitory Concentration (MIC) (E. coli ATCC 25922): >32 µg/mL
Minimum Inhibitory Concentration (MIC) (C. albicans ATCC 38247): >32 µg/mL
Minimum Inhibitory Concentration (MIC) (S. pneumoniae ATCC 49619): +++ (+++ = MIC ≦4)
Equilibrium Association Constant (Ka) (5′-AAAAAGACAAAAA-3′): 2e+08 M⁻¹
Equilibrium Association Constant (Ka) (5′-AAAAAGCAAAAA-3′): 2e+08 M⁻¹
Equilibrium Association Constant (Ka) (5′-AAAAAGTACAAAAA-3′): ≧1 × 10^11 M^−1
